Reference: patent US7045551B2 (Bristol-Myers Squibb Company, priority 2002, dated 2006)

What was measured:
[1] = target: voltage-gated K+ channel KCNQ2 (Homo sapiens, UniProt O43526); test: Thallium flux assay for openers of KCNQ potassium channels; format: cell-based; conditions: 10 point concentration series, concentration required to yield 50% of the maximal response
Description: A thallium flux assay was used to detect and characterize openers of KCNQ potassium channels. The thallium assay is generally described in International application WO 02/31508 published Apr. 18, 2002. More specifically, the thallium influx assay to detect compounds that block or open the voltage-gated K^+ channel KCNQ2 is described in Example IV of the published WO 02/31508 application.
For data analysis, the amplitude of the average of the negative controls was subtracted from all wells. The amplitudes of the test compounds were then compared to the value of four standard deviations of the negative control wells. The lowest concentration of a test compound sufficient to generate a signal amplitude greater than or equal to four standard deviations from the amplitude of the negative controls was defined as the minimal active concentration.
For generating EC50 values, compounds were serially diluted in 1:3 volume increments to produce a 10 point concentration series. EC50 values were calculated by fitting the resulting amplitudes to a single-site logistic equation. EC50 was defined as the concentration of test compound required to yield 50% of the maximal response. Maximal response (Maximal opening) was the largest signal amplitude above the negative control generated by any concentration of a test compound.

mKCNQ2 channels = target: T1, mKCNQ2 channels (Mus musculus, UniProt Q9Z351); test: Whole-cell patch-clamp recordings of mKCNQ2 currents; format: cell-based; conditions: for EC50: HEK 293 stable cell line expressing mKCNQ2, @ −40 mV, room temperature; for Imax (%): HEK 293 stable cell line expressing mKCNQ2, Imax from Hill-type curve fit
T1 construct: expressed in transfected cells
Experimental: Whole-cell patch-clamp recordings were made from an HEK 293 stable cell line expressing mKCNQ2 channels, maintained in culture for 1–2 days. Patch pipettes had initial resistances of 2.5–4 MΩ. Currents were recorded with an EPC-9 amplifier (HEKA, Lambrecht, Germany) controlled with software (Pulse, HEKA) run on a standard lab PC. Series resistance compensation was used during current recording, and set at 80%. The series resistance (R) and cell capacitance (C) were determined electronically by subtracting the capacitive currents at the onset and offset of a 5 mV voltage step. The cancellation of whole-cell capacitive transients was virtually complete in all cells. Analog current signals were low-pass filtered at 2.9 kHz using a four-pole Bessel filter −3 dB) and stored on a local network server computer at a sampling rate of […]. All recordings were performed at room temperature (20–22° C.). The pipette solution contained (mM): KCl, 150; CaCl2, 2.5; EGTA, 5; MgCl2, 1; HEPES, 10; pH to 7.3 with KOH, and Osmolality of 290–300 mOsm. The extracellular solution contained (mM): NaCl, 140; KCl, 2.5; CaCl2, 2.5; MgCl2, 1; glucose, 10; HEPES, 10; pH to 7.3 with NaOH, and Osmolality of 305–310 mOsm
Concentration response data were generated by measuring the difference in the steady-state amplitude of current in the presence of compound at the end of a 600 ms voltage-clamp step from a holding potential of −80 mV. The concentration-response data were fitted with Hill-type equations: I=Imax/(1+EC50/[A]^nH), where I is the steady-state current at a given concentration of agonist [A]; and Imax, EC50 and nH are parameters estimated from the curve fit. In some cases the concentration-response data were fitted with equations consisting of the sum of two Hill-type components. Current-voltage (I/V) relationships for agonist-evoked currents were obtained by performing 600 ms voltage steps (−110 mV to +40 mV) in the absence and presence of agonist.

EC50 [1] | EC50 (mKCNQ2 channels) | Imax (%) (mKCNQ2 channels) | Structure (SMILES)
892 nM |  |  | O=C(/C=C/c1ccc(F)c(F)c1)N[C@@H](CO)c1ccc2ccccc2c1 [Example 58, (R)-3-(3,4-Difluoro-phen-yl)-N-(2-hydroxy-1-naph-thalen-2-yl-ethyl)-acryl-amide]
503 nM | 0.619 µM | 981% | O=C(/C=C/c1ccc(F)cc1)N[C@@H](CO)c1ccc2ccccc2c1 [Example 48, (R)-3-(4-Fluoro-phenyl)-N-(2-hy-droxy-1-naphthalen-2-yl-eth-yl)-acrylamide]
39 nM |  |  | O=C(/C=C/c1cccc(F)c1)N[C@@H](CO)c1ccc2ccccc2c1 [Example 47, (R)-3-(3-Fluoro-phenyl)-N-(2-hy-droxy-1-naphthalen-2-yl-eth-yl)-acrylamide]

Second part, the compound before the results:

Structure (SMILES) | EC50 [1] | EC50 (mKCNQ2 channels) | Imax (%) (mKCNQ2 channels)
O=C(/C=C/c1ccccc1)N[C@@H](CO)c1ccc2ccccc2c1 [Example 49] | 354 nM |  | 
O=C(/C=C/c1ccc(F)cc1F)N[C@@H](CO)c1ccc2ccccc2c1 [Example 55, (R)-3-(2,4-Difluoro-phen-yl)-N-(2-hydroxy-1-naph-thalen-2-yl-ethyl)-acryl-amide] | 144 nM |  | 
O=C(/C=C/c1ccccc1Cl)N[C@H](c1ccc2ccccc2c1)[C@H](O)CO [Example 106, (1R,2S)-3-(2-Chloro-phenyl)-N-(2,3-dihydroxy-1-naph-thalen-2-yl-propyl)-acryl-amide] | 1440 nM |  | 
O=C(/C=C/c1ccc(F)cc1F)N[C@H](c1ccc2ccccc2c1)[C@H](O)CO [Example 111, (1R,2S)-3-(2,4-Difluoro-phen-yl)-N-(2,3-dihydroxy-1-naph-thalen-2-yl-propyl)-acryl-amide] | 980 nM |  | 
O=C(/C=C/c1ccc(F)cc1F)NC(CO)c1cccc(N2CCOCC2)c1 (stereo in doubt) [Example 18, (R)-3-(2,4-Difluoro-phenyl)-N-[2-hydroxy-1-(3-morpho-lin-4-yl-phen-yl)-ethyl]-acrylamide] |  | 1.46 µM | 820%
